≈ marks a conversion by molar mass, not a printed value.

Here are results for 12 molecules from ChEMBL document CHEMBL3576778, “Structure-Activity Relationship Studies of a Series of Semisynthetic Lipopeptides Leading to the Discovery of Surotomycin, a Novel Cyclic Lipopeptide Being Developed for the Treatment of Clostridium difficile-Associated Diarrhea” (J Med Chem, 2015).

Holding throughout (assay type): functional
Assay [1] concerns Clostridioides difficile. Nature of the assay: Antimicrobial activity against daptomycin-resistant Clostridium difficile NAP1 incubated anaerobically at 37 degC for 48 hrs by agar dilution method. Particulars: NAP1, 48 h.
Another assay relates to Staphylococcus aureus. Briefly: Antimicrobial activity against daptomycin-susceptible Staphylococcus aureus ATCC 29213 incubated anaerobically at 37 degC for 48 hrs by agar dilution method. As to conditions: ATCC 29213, 48 h. For orientation: In agar dilution the substance is mixed into plates at graded concentrations.
A further assay concerns Enterococcus faecium. Briefly: Antimicrobial activity against daptomycin-resistant Enterococcus faecium ATCC 6569 incubated anaerobically at 37 degC for 48 hrs by agar dilution method. As to conditions: ATCC 6569, 48 h.
The subject of another assay is Enterococcus faecalis. Briefly: Antimicrobial activity against daptomycin-resistant Enterococcus faecalis ATCC 49452 incubated anaerobically at 37 degC for 48 hrs by agar dilution method. Particulars: ATCC 49452, 48 h.
Assay [2] relates to Clostridioides difficile. Nature of the assay: Antimicrobial activity against daptomycin-resistant Clostridium difficile ATCC 43596 infected in Syrian golden hamster model of Clostridium difficile-associated diarrhea assessed as protection against microbial infection by measuring survival at day 25 to 26 at 0.5 mg/kg treated once daily for 5 consecutive days starting 4 hrs after spore inoculation.

Turning to `CCCCCCCc1ccc(C(=O)N[C@@H](Cc2c[nH]c3ccccc23)C(=O)N[C@@H](CC(N)=O)C(=O)N[C@@H](CC(=O)O)C(=O)N[C@@H]2C(=O)NCC(=O)N[C@@H](CCCN)C(=O)N[C@H](CC(=O)O)C(=O)N[C@H](C)C(=O)N[C@@H](CC(=O)O)C(=O)NCC(=O)N[C@H](CO)C(=O)N[C@@H]([C@@H](C)CC(=O)O)C(=O)N[C@@H](CC(=O)c3ccccc3N)C(=O)O[C@@H]2C)cc1`, the MIC (in general, the lowest concentration that inhibits growth of the organism) against Clostridioides difficile [1] worked out at 0.5 µg/mL (≈ 0.3 µM); against Staphylococcus aureus, 0.25 µg/mL (≈ 0.15 µM); against Enterococcus faecium it was 4 µg/mL (≈ 2.4 µM); in the assay on Enterococcus faecalis it was 8 µg/mL (≈ 4.79 µM). For the same molecule, the survival at 0.5 mg/kg in the assay on Clostridioides difficile [2] came out at 80%.

In the case of `CCCCCCCCc1ccc(C(=O)N[C@@H](Cc2c[nH]c3ccccc23)C(=O)N[C@@H](CC(N)=O)C(=O)N[C@@H](CC(=O)O)C(=O)N[C@@H]2C(=O)NCC(=O)N[C@@H](CCCN)C(=O)N[C@H](CC(=O)O)C(=O)N[C@H](C)C(=O)N[C@@H](CC(=O)O)C(=O)NCC(=O)N[C@H](CO)C(=O)N[C@@H]([C@@H](C)CC(=O)O)C(=O)N[C@@H](CC(=O)c3ccccc3N)C(=O)O[C@@H]2C)cc1`, the MIC was 1 µg/mL (≈ 0.594 µM) in the assay with Clostridioides difficile [1], 0.5 µg/mL (≈ 0.297 µM) with Staphylococcus aureus, 4 µg/mL (≈ 2.38 µM) with Enterococcus faecium and 8 µg/mL (≈ 4.75 µM) with Enterococcus faecalis. The survival at 0.5 mg/kg in the assay with Clostridioides difficile [2] stood at 20%.

For the molecule `CCCCCCSc1ccc(-c2csc(C(=O)N[C@@H](Cc3c[nH]c4ccccc34)C(=O)N[C@@H](CC(N)=O)C(=O)N[C@@H](CC(=O)O)C(=O)N[C@@H]3C(=O)NCC(=O)N[C@@H](CCCN)C(=O)N[C@H](CC(=O)O)C(=O)N[C@H](C)C(=O)N[C@@H](CC(=O)O)C(=O)NCC(=O)N[C@H](CO)C(=O)N[C@@H]([C@@H](C)CC(=O)O)C(=O)N[C@@H](CC(=O)c4ccccc4N)C(=O)O[C@@H]3C)c2)cc1`, the MIC against Clostridioides difficile [1] is 8 µg/mL (≈ 4.52 µM); with Staphylococcus aureus, 8 µg/mL (≈ 4.52 µM); against Enterococcus faecium it was 16 µg/mL (≈ 9.05 µM); against Enterococcus faecalis, above 32 µg/mL.

For the molecule `C[C@H]1NC(=O)C(CC(=O)O)NC(=O)[C@H](CCCN)NC(=O)CNC(=O)[C@@H](NC(=O)[C@H](CC(=O)O)NC(=O)[C@H](CC(N)=O)NC(=O)[C@H](Cc2c[nH]c3ccccc23)NC(=O)CCCCCC2CCCCC2)[C@@H](C)OC(=O)[C@H](CC(=O)c2ccccc2N)NC(=O)[C@H]([C@@H](C)CC(=O)O)NC(=O)[C@@H](CO)NC(=O)CNC(=O)[C@H](CC(=O)O)NC1=O` (single isomer, unassigned), the MIC against Clostridioides difficile [1] was 2 µg/mL (≈ 1.21 µM); against Staphylococcus aureus, 1 µg/mL (≈ 0.607 µM); in the assay on Enterococcus faecium, 16 µg/mL (≈ 9.72 µM); against Enterococcus faecalis, above 32 µg/mL.

Take `CCCCCC12CCC(C(=O)N[C@@H](Cc3c[nH]c4ccccc34)C(=O)N[C@@H](CC(N)=O)C(=O)N[C@@H](CC(=O)O)C(=O)N[C@@H]3C(=O)NCC(=O)N[C@@H](CCCN)C(=O)N[C@H](CC(=O)O)C(=O)N[C@H](C)C(=O)N[C@@H](CC(=O)O)C(=O)NCC(=O)N[C@H](CO)C(=O)N[C@@H]([C@@H](C)CC(=O)O)C(=O)N[C@@H](CC(=O)c4ccccc4N)C(=O)O[C@@H]3C)(CC1)CC2`: the MIC in the assay with Clostridioides difficile [1] turned out to be 1 µg/mL (≈ 0.598 µM); in the assay with Staphylococcus aureus it was 0.25 µg/mL (≈ 0.149 µM); with Enterococcus faecium, 16 µg/mL (≈ 9.56 µM); in the assay on Enterococcus faecalis it was 32 µg/mL (≈ 19.1 µM). Also, the survival at 0.5 mg/kg in the assay on Clostridioides difficile [2] turned out to be 60%.

`CCCCCCOc1ccc(-c2ccc(C(=O)N[C@@H](Cc3c[nH]c4ccccc34)C(=O)N[C@@H](CC(N)=O)C(=O)N[C@@H](CC(=O)O)C(=O)N[C@@H]3C(=O)NCC(=O)N[C@@H](CCCN)C(=O)N[C@H](CC(=O)O)C(=O)N[C@H](C)C(=O)N[C@@H](CC(=O)O)C(=O)NCC(=O)N[C@H](CO)C(=O)N[C@@H]([C@@H](C)CC(=O)O)C(=O)N[C@@H](CC(=O)c4ccccc4N)C(=O)O[C@@H]3C)cc2)cc1`: the MIC against Clostridioides difficile [1] is 2 µg/mL (≈ 1.14 µM); in the assay with Staphylococcus aureus, 0.5 µg/mL (≈ 0.286 µM); in the assay with Enterococcus faecium, 1 µg/mL (≈ 0.572 µM); in the assay with Enterococcus faecalis it was 2 µg/mL (≈ 1.14 µM).

Take `CCCCCCCc1csc(C(=O)N[C@@H](Cc2c[nH]c3ccccc23)C(=O)N[C@@H](CC(N)=O)C(=O)N[C@@H](CC(=O)O)C(=O)N[C@@H]2C(=O)NCC(=O)N[C@@H](CCCN)C(=O)N[C@H](CC(=O)O)C(=O)N[C@H](C)C(=O)N[C@@H](CC(=O)O)C(=O)NCC(=O)N[C@H](CO)C(=O)N[C@@H]([C@@H](C)CC(=O)O)C(=O)N[C@@H](CC(=O)c3ccccc3N)C(=O)O[C@@H]2C)c1`: the MIC in the assay with Clostridioides difficile [1] is 2 µg/mL (≈ 1.19 µM); in the assay with Staphylococcus aureus, 0.125 µg/mL (≈ 0.0746 µM); against Enterococcus faecium, 16 µg/mL (≈ 9.55 µM); in the assay with Enterococcus faecalis it was 32 µg/mL (≈ 19.1 µM). In addition, the survival at 0.5 mg/kg in the assay on Clostridioides difficile [2] worked out at 60%.

Turning to `CCCCCOc1ccc(-c2ccc(C(=O)N[C@@H](Cc3c[nH]c4ccccc34)C(=O)N[C@@H](CC(N)=O)C(=O)N[C@@H](CC(=O)O)C(=O)N[C@@H]3C(=O)NCC(=O)N[C@@H](CCCN)C(=O)N[C@H](CC(=O)O)C(=O)N[C@H](C)C(=O)N[C@@H](CC(=O)O)C(=O)NCC(=O)N[C@H](CO)C(=O)N[C@@H]([C@@H](C)CC(=O)O)C(=O)N[C@@H](CC(=O)c4ccccc4N)C(=O)O[C@@H]3C)cc2)cc1`, the MIC against Clostridioides difficile [1] was 2 µg/mL (≈ 1.15 µM); against Staphylococcus aureus, 0.25 µg/mL (≈ 0.144 µM); in the assay with Enterococcus faecium, 2 µg/mL (≈ 1.15 µM); against Enterococcus faecalis it was 4 µg/mL (≈ 2.31 µM).

Take `CCCCC[C@H]1CC[C@H](C(=O)N[C@@H](Cc2c[nH]c3ccccc23)C(=O)N[C@@H](CC(N)=O)C(=O)N[C@@H](CC(=O)O)C(=O)N[C@@H]2C(=O)NCC(=O)N[C@@H](CCCN)C(=O)N[C@H](CC(=O)O)C(=O)N[C@H](C)C(=O)N[C@@H](CC(=O)O)C(=O)NCC(=O)N[C@H](CO)C(=O)N[C@@H]([C@@H](C)CC(=O)O)C(=O)N[C@@H](CC(=O)c3ccccc3N)C(=O)O[C@@H]2C)CC1`: the MIC with Clostridioides difficile [1] is 0.5 µg/mL (≈ 0.304 µM); against Staphylococcus aureus, 0.5 µg/mL (≈ 0.304 µM); with Enterococcus faecium it was 16 µg/mL (≈ 9.72 µM); against Enterococcus faecalis, above 32 µg/mL. Also, the survival at 0.5 mg/kg in the assay with Clostridioides difficile [2] worked out at 60%.

Consider `C[C@H]1NC(=O)C(CC(=O)O)NC(=O)[C@H](CCCN)NC(=O)CNC(=O)[C@@H](NC(=O)[C@H](CC(=O)O)NC(=O)[C@H](CC(N)=O)NC(=O)[C@H](Cc2c[nH]c3ccccc23)NC(=O)CCCCCCc2ccccc2)[C@@H](C)OC(=O)[C@H](CC(=O)c2ccccc2N)NC(=O)[C@H]([C@@H](C)CC(=O)O)NC(=O)[C@@H](CO)NC(=O)CNC(=O)[C@H](CC(=O)O)NC1=O` (single isomer, unassigned), for which the MIC against Clostridioides difficile [1] was 8 µg/mL (≈ 4.83 µM); against Staphylococcus aureus, 16 µg/mL (≈ 9.67 µM); in the assay on Enterococcus faecium, above 32 µg/mL; in the assay on Enterococcus faecalis it was above 32 µg/mL.

Consider `C[C@H]1NC(=O)C(CC(=O)O)NC(=O)[C@H](CCCN)NC(=O)CNC(=O)[C@@H](NC(=O)[C@H](CC(=O)O)NC(=O)[C@H](CC(N)=O)NC(=O)[C@H](Cc2c[nH]c3ccccc23)NC(=O)CCCCCCC2CCCCC2)[C@@H](C)OC(=O)[C@H](CC(=O)c2ccccc2N)NC(=O)[C@H]([C@@H](C)CC(=O)O)NC(=O)[C@@H](CO)NC(=O)CNC(=O)[C@H](CC(=O)O)NC1=O` (single isomer, unassigned), for which the MIC in the assay with Clostridioides difficile [1] is 1 µg/mL (≈ 0.602 µM); with Staphylococcus aureus it was 0.5 µg/mL (≈ 0.301 µM); against Enterococcus faecium, 8 µg/mL (≈ 4.82 µM); in the assay on Enterococcus faecalis, 16 µg/mL (≈ 9.63 µM).

Consider `C[C@H]1NC(=O)[C@@H](CC(=O)O)NC(=O)[C@H](CCCN)NC(=O)CNC(=O)[C@@H](NC(=O)[C@H](CC(=O)O)NC(=O)[C@H](CC(N)=O)NC(=O)[C@H](Cc2c[nH]c3ccccc23)NC(=O)C2CCCCCCCCCCC2)[C@@H](C)OC(=O)[C@H](CC(=O)c2ccccc2N)NC(=O)[C@H]([C@@H](C)CC(=O)O)NC(=O)[C@@H](CO)NC(=O)CNC(=O)[C@H](CC(=O)O)NC1=O`, for which the MIC was 4 µg/mL (≈ 2.41 µM) in the assay on Clostridioides difficile [1], 1 µg/mL (≈ 0.602 µM) with Staphylococcus aureus, 32 µg/mL (≈ 19.3 µM) in the assay with Enterococcus faecium and above 32 µg/mL in the assay on Enterococcus faecalis.
